One assay addresses T1, P2X7 receptor (Homo sapiens, UniProt Q99572).
T1 construct: host or cells: SH-SY5Y
T1 sequence (Q99572 1-595): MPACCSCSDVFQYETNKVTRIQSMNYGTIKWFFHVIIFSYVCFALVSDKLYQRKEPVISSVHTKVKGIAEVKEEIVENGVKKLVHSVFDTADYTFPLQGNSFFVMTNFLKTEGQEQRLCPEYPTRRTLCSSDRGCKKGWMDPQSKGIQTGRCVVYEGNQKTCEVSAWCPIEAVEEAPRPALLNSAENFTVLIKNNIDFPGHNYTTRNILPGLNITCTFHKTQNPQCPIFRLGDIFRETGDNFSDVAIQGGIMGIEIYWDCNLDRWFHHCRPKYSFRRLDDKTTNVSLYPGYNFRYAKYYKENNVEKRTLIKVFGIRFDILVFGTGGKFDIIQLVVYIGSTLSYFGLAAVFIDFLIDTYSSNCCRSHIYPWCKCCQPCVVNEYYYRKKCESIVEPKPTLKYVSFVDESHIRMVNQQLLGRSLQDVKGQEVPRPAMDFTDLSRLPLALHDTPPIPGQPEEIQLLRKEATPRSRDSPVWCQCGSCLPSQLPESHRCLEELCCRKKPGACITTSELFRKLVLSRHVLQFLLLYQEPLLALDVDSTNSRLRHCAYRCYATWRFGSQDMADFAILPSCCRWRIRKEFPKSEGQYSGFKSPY
Kind of assay: P2X7 calcium mobilization assay, high throughput, antagonist activity (Example 4A). Type of assay: cell-based. As to conditions: 50% decrease in the fluorescence response of cells exposed to 80 μM 2′(3′)-O-(4-benzoyl-benzoyl)adenosine 5′-triphosphate; Example 4A; read-out: IC50. The procedure, abridged:
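Dye-loaded cells (100,000/well, seeded previous day) are pre-exposed to compound for an hour at room temperature. Fluorescence maxima are baseline-corrected against no-agonist wells and compared with the averaged agonist-well maximum.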
(In general: Calcium assays in cells follow changes in intracellular calcium, usually with a dye or a luminescent sensor.)
On to `CNC1CCN(C(=O)Cc2cn3c(C(=O)NC[C@@H]4CC[C@@H]5C[C@H]4C5(C)C)cccc3n2)C1` (stereo partly drawn) [Compound 568, N-{[(1R,2R,5R)-6,6-dimethylbicyclo[3.1.1]hept-2-yl]methyl}-2-{2-[3-(methylamino)pyrrolidin-1-yl]-2-oxoethyl}imidazo[1,2-a]pyridine-5-carboxamide], for which the IC50 (as a rule, the midpoint of a concentration-inhibition curve) is less than 2000 nM.

Consider `CC1(C)[C@H]2CC[C@@H](CNC(=O)c3cccc4nc(C(=O)N5CCC(C(F)(F)F)CC5)cn34)[C@@H]1C2` [Compound 488], for which the IC50 was less than 2000 nM.

With `CN(C)CCCN(C(=O)c1cn2c(C(=O)NCC34CC5CC(CC(C5)C3)C4)cccc2n1)C1CCNCC1` [Compound 610, 5-N-(adamantan-1-ylmethyl)-2-N-[3-(dimethylamino)propyl]-2-N-piperidin-4-ylimidazo[1,2-a]pyridine-2,5-dicarboxamide], the IC50 is less than 2000 nM.

Turning to `CCN(CCO)Cc1cn2c(C(=O)NCC34CC5CC(CC(C5)C3)C4)cccc2n1` [Compound 553, N-(adamantan-1-ylmethyl)-2-{[ethyl(2-hydroxyethyl)amino]methyl}imidazo[1,2-a]pyridine-5-carboxamide], the IC50 is less than 2000 nM.

Turning to `CCOC(=O)CN(CC)C(=O)c1cn2c(C(=O)NC[C@@H]3CC[C@H]4C[C@@H]3C4(C)C)cccc2n1` [Compound 479, ethyl N-{[5-({[(1S,2R,5S)-6,6-dimethylbicyclo[3.1.1]hept-2-yl]methyl}carbamoyl)imidazo[1,2-a]pyridin-2-yl]carbonyl}-N-ethylglycinate], the IC50 was less than 2000 nM.

Regarding `CC(C(=O)O)c1cn2c(C(=O)NCC34CC5CC(CC(C5)C3)C4)cccc2n1` (stereo not drawn) [Compound 547, 2-{5-[(adamantan-1-ylmethyl)carbamoyl]imidazo[1,2-a]pyridin-2-yl} propanoic acid], the IC50 is less than 2000 nM.

`N#CCc1cn2c(C(=O)NCC34CC5CC(CC(C5)C3)C4)cccc2n1` [Compound 598, N-(adamantan-1-ylmethyl)-2-(cyanomethyl)imidazo [1,2-a]pyridine-5-carboxamide]: the IC50 is less than 2000 nM.

Staying with this assay, now noted: 50% decrease in the fluorescence response of cells exposed to 80 μM of 2′(3′)-O-(4-benzoyl-benzoyl)adenosine 5′-triphosphate; Example 4A; read-out: IC50.
`CCN1CCCC1CNC(=O)c1cn2c(C(=O)NCC34CC5CC(CC(C5)C3)C4)cccc2n1` (stereo not drawn) [Compound 643, 5-N-(adamantan-1-ylmethyl)-2-N-[(1-ethylpyrrolidin-2-yl)methyl]imidazo[1,2-a]pyridine-2,5-dicarboxamide]: the IC50 was less than 2000 nM.

Turning to `COCc1ccc(CN(C)C(=O)c2cn3c(C(=O)NCC45CC6CC(CC(C6)C4)C5)cccc3n2)nc1` [Compound 710, 5-N-(adamantan-1-ylmethyl)-2-N-{[5-(methoxymethyl)pyridin-2-yl]methyl}-2-N-methylimidazo[1,2-a]pyridine-2,5-dicarboxamide], the IC50 was less than 2000 nM.

On to `O=C(O)c1nnnn1Cc1cn2c(C(=O)NCC34CC5CC(CC(C5)C3)C4)cccc2n1` [Compound 737, 1-({5-[(adamantan-1-ylmethyl)carbamoyl]imidazo[1,2-a]pyridin-2-yl}methyl)-1H-tetrazole-5-carboxylic acid], for which the IC50 was less than 2000 nM.

Staying with this assay, now noted: 50% decrease in the fluorescence response of cells exposed to 80 μM of 2′(3′)-O-(4-benzoyl-benzoyl)adenosine 5′-triphosphate; determined as in Example 4A; read-out: IC50.
On to `O=C(NCC12CC3CC(CC(C3)C1)C2)c1cccc2nc(CC(=O)N3CCS(=O)(=O)CC3)cn12` [Compound 820, N-(adamantan-l-ylmethyl)-2-[2-(1,1-dioxidothio-morpholin-4-yl)-2-oxoethyl] imidazo[1,2-a] pyridine-5-carboxamide], for which the IC50 is less than 2000 nM.

Regarding `O=C(NCC1(c2ccc(Cl)cc2)CCCCC1)c1cccc2nc(C(Cc3ccccn3)C(=O)O)cn12` (stereo not drawn) [Compound 937, 2-[5-({[1-(4-chlorophenyl)cyclohexyl]methyl}carbamoyl)imidazo[1,2-a]pyridin-2-yl]-3-pyridin-2-ylpropanoic acid], the IC50 is less than 2000 nM.

With `O=C(Cc1cn2c(C(=O)NCC3(c4cccnc4)CCCCC3)cccc2n1)NCC(F)(F)F` [Compound 874, 2-{2-oxo-2-[(2,2,2-trifluoroethyl)amino]ethyl}-N-[(1-pyridin-3-ylcyclohexyl)methyl] imidazo[1,2-a] pyridine-5-carboxamide], the IC50 was less than 2000 nM.

As for `CCOC(=O)C(Cc1ccc(Cl)cc1)c1cn2c(C(=O)NCC3(c4ccc(Cl)cc4)CCCCC3)cccc2n1` (stereo not drawn) [Compound 934, ethyl 3-(4-chlorophenyl)-2-[5-({[1-(4-chlorophenyl)cyclohexyl]methyl}carbamoyl)imidazo[1,2-a]pyridin-2-yl]propanoate], the IC50 was less than 2000 nM.

Still in this assay, the particulars now being: P2X7 calcium mobilization, Example 4A; 50% decrease in the fluorescence response of cells exposed to 80 μM of (2′(3′)-O-(4-benzoyl-benzoyl)adenosine 5′-triphosephate); read-out: IC50.
As for `O=C(NCC12CC3CC(CC(C3)C1)C2)c1ccc2nc(CCl)cn2c1` [Compound 1062, N-(adamantan-1-ylmethyl)-2-(chloromethyl) imidazo [1,2-a]pyridine-6-carboxamide], the IC50 is less than 2000 nM.

Still in this assay, the particulars now being: SH-SY5Y cells; 50% decrease in fluorescence response to 80 μM BzATP; read-out: IC50.
Regarding `O=C1CN(C(=O)Cc2cn3c(C(=O)NCC45CC6CC(CC(C6)C4)C5)cccc3n2)CCN1` [Compound 46, N-(adamantan-1-ylmethyl)-2-[2-oxo-2-(3-oxopiperazin-1-yl)ethyl]imidazo[1,2-a]pyridine-5-carboxamide], the IC50 is less than 2000 nM.

For `O=C(NCC12CC3CC(CC(C3)C1)C2)c1cccc2nc(CC(=O)N3CCCCC3)cn12` [Compound 181, N-(adamantan-1-ylmethyl)-2-(2-oxo-2-piperidin-1-ylethyl)imidazo[1,2-a]pyridine-5-carboxamide], the IC50 is less than 2000 nM.

Consider `COC[C@@H]1CCCN1C(=O)Cc1cn2c(C(=O)NCC34CC5CC(CC(C5)C3)C4)cccc2n1` [Compound 171, N-(adamantan-1-ylmethyl)-2-{2-[(2S)-2-(methoxymethyl)pyrrolidin-1-yl]-2-oxoethyl}imidazo[1,2-a]pyridine-5-carboxamide], for which the IC50 is less than 2000 nM.

Regarding `CC(NC(=O)c1cn2c(C(=O)NCC34CC5CC(CC(C5)C3)C4)cccc2n1)C(N)=O` (stereo not drawn) [Compound 79, 5-N-(adamantan-1-ylmethyl)--(2-amino-1-methyl-2-oxoethyl)imidazo[1,2-a]pyridine-2,5-dicarboxamide], the IC50 is less than 2000 nM.

The same assay, now with this note: fluorescence response of cells exposed to 80 μM 2′(3′)-O-(4-benzoyl-benzoyl)adenosine 5′-triphosphate; Example 4A; read-out: IC50.
In the case of `C/C(CCc1cn2c(C(=O)NCC34CC5CC(CC(C5)C3)C4)cccc2n1)=N\O` [Compound 354, N-(adamantan-1-ylmethyl)-2-[(3E)-3-(hydroxyimino)butyl] imidazo[1,2-a]pyridine-5-carboxamide], the IC50 was less than 2000 nM.

On to `C[C@H](N)C(=O)N[C@@H]1CCN(Cc2cn3c(C(=O)NCC45CC6CC(CC(C6)C4)C5)cccc3n2)C1` [Compound 277, N-(adamantan-1-ylmethyl)-2-{[(3R)-3-(L-alanylamino)pyrrolidin-1-yl]methyl}imidazo[1,2-a]pyridine-5-carboxamide], for which the IC50 was less than 2000 nM.

Turning to `COC[C@@H]1CCCN1C(=O)c1cn2c(C(=O)NCC(CC(C)C)c3ccccc3)cccc2n1` (stereo partly drawn) [Compound 257, 2-{[(2S)-2-(methoxymethyl)pyrrolidin-1-yl]carbonyl)-N-(4-methyl-2-phenylpentyl)imidazo [1,2-a]pyridine-5-carboxamide], the IC50 is less than 2000 nM.

Regarding `CC1(C)[C@H]2CC[C@@H](CNC(=O)c3cccc4nc(C(=O)N5CCC(N)C5)cn34)[C@@H]1C2` (stereo partly drawn) [Compound 315, 2-[(3-aminopyrrolidin-1-yl)carbonyl]-N-{[(1S,2R,5S)-6,6-dimethylbicyclo[3.1.1]hept-2-yl]methyl}imidazo[1,2-a]pyridine-5-carboxamide], the IC50 is less than 2000 nM.

Turning to `CN(CC1OCCO1)C(=O)c1cn2c(NC(=O)CC34CC5CC(CC(C5)C3)C4)cccc2n1` [Compound 368, 5-[(adamantan-l-ylacetyl)amino]-N-(1,3-dioxolan-2-ylmethyl)-N-methylimidazo[1,2-a]pyridine-2-carboxamide], the concentration for half-maximal inhibition (IC50) was less than 2000 nM.

With `CCCN(CCC)C(=O)c1cn2c(NC(=O)CC34CC5CC(CC(C5)C3)C4)cccc2n1` [Compound 374, 5-[(adamantan-1-ylacetyl)amino]-N,N-dipropylimidazo[1,2-a]pyridine-2-carboxamide], the IC50 is less than 2000 nM.

Consider `O=C(NCC12CC3CC(CC(C3)C1)C2)c1cccc2nc(CN3CCCC(F)(F)C3)cn12` [Compound 288, N-(adamantan-1-ylmethyl)-2-[(3,3-difluoropiperidin-1-yl)methyl]imidazo[1,2-a]pyridine-5-carboxamide], for which the IC50 is less than 2000 nM.

On to `CCCC(=O)NC1CCN(C(=O)c2cn3c(NC(=O)CC45CC6CC(CC(C6)C4)C5)cccc3n2)CC1` [Compound 409, N-[1-({5-[(adamantan-1-ylacetyl)amino]imidazo[1,2-a]pyridin-2-yl}carbonyl)piperidin-4-yl]butanamide], for which the IC50 was less than 2000 nM.

(Values after patent US8431593B2, “Heteroaryl amide derivatives” (H. Lundbeck A/S, priority 2006, dated 2013).)
